For series [1], the system named is OE21 human oesophageal squamous cell carcinoma. Briefly: MTT assay, OE21 cells. The note with it: MTT. The series is classed as cell-based. The procedure: (§1) MTT assay. OE21, FLO-1 or hSAEC1-KT cells were seeded in 96 well plates at 20,000 cells/well (for 24 h treatment) or 10,000 cells/well (for 72 h treatment) and allowed to adhere for 24 h before treatment. OE33 cells were seeded in 48 well plates at 40,000 cells/well (24 h treatment) or 20,000 cells/well (72 h treatment). Cancer cell lines were treated with chemicals dissolved in RPMI media for consistency. After incubation, 0.5 mg/ml MTT (thiazolyl blue tetrazolium bromide) dissolved in serum-free medium was added for 60 minutes and the formazan product eluted using acidified isopropanol.
(§2) The absorbance at 540 nm was quantified by plate reader (reference wavelength 650 nm). The metabolic activity of the cell population was determined as a percentage of a negative (solvent) control. […]
(§3) For the determination of mutation induction, from the untreated and each treated condition, 2x10^5 cells were plated in 10 x 100 mm dishes in selective media (regular media

For series [2], the system named is OE33 human oesophageal adenocarcinoma. In words: MTT assay, OE33 cells. The series is classed as cell-based. The procedure: as §1, §2, §3
On the technique in general: Formazan colour is commonly taken as a measure of viable cells.

For series [3], the system named is FLO-1 human oesophageal adenocarcinoma. In words: MTT assay, FLO-1 cells. The series is classed as cell-based. The procedure: as §1, §2, §3
The test system of another series is OE21 cells. In words: Western blotting of DNA damage response (DDR) markers. The note with it: OE21, 24 h treatment. The series is classed as cell-based, human. The procedure:
phototoxic contribution to bio-activity. Doxorubicin (Sigma) was prepared in doubly-distilled water (10 mg/mL, 17.4 mM).
[Ru(phen)2(dppz)]2+ (2 mM) was prepared in doubly-distilled water. […]
Western blotting. Treated samples were washed with cold PBS and lysed in RIPA (radioimmunoprecipitation assay) buffer containing protease inhibitors (10 μg/mL leupeptin, 2 μg/mL pepstatin, 50 μg/mL antipain, 2 μg/mL aprotinin, 20 μg/mL chyprostatin, 2 μg/mL benzamidine, 1 mM phenylmethanesulfonyl fluoride) and phosphatase inhibitors (50 mM NaF, 1 mM Na3VO4 and 20 mM β-glycerophosphate). Protein content was determined by BCA assay. Aliquots of cell lysates (10-50 μg total protein) were prepared in standard Laemmli buffer, heated at 95 °C for 5 minutes and resolved by NuPAGE® 4–12% Bis-Tris gels and LDS-PAGE. Gels were transferred onto nitrocellulose membrane and probed with primary antibodies in 5% BSA (bovine serum albumin) solutions at the following dilutions: 1/1000 dilution for majority of Cell Signaling antibodies and γH2AX. 1/500 for anti-p-ATR and anti-cleaved caspase 3. 1/200 anti-Chk1. 1/5000-1/10,000 anti- α-tubulin or β-actin.
Reactions were visualised with a suitable secondary antibody conjugated with horseradish peroxidase (1/5000 dilution, Thermo). […]

For series [4] the following is noted: cited from earlier work.

[Ru(phen)2(dppz)]^2+: the concentration for half-maximal inhibition (IC50) in series [1] (OE21, 24 h constant exposure) was above 100 µM; in series [1] (OE21, 72 h constant exposure), above 100 µM; in series [2] (OE33, 24 h constant exposure), above 100 µM; in series [2] (OE33, 72 h constant exposure) it was above 100 µM; in series [3] (FLO1, 24 h constant exposure), above 100 µM; in series [3] (FLO1, 72 h constant exposure), 34 ± 5.7 µM. In addition, the “DDR activation (γH2AX immunoblotting)” value with OE21 cells is recorded as “no evidence of DDR activation”. Further, the “log P” value in series [4] is recorded as “–1.48”.

One may read the IC50 as the concentration that inhibits the measured activity by half. A higher IC50 goes with a need for much substance.

The values are drawn from article PMC5870190, “A three-in-one-bullet for oesophageal cancer: replication fork collapse, spindle attachment failure and enhanced radiosensitivity generated by a ruthenium(II) metallo-intercalator” (Chemical Science, 2017).
